Experimental data published in ChEMBL document CHEMBL1201862, “PubChem BioAssay data set” (2004).
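These data come from cells grown in 96-well plates and exposed to compound for 48 hours at five concentrations. The concentration for 50% growth inhibition is given as GI50.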 The source made the active and inactive calls. No stated cut-off is given here; in the data, active = GI50 up to about 1.1 µM and inactive = higher.

How the values were obtained:
Assay in all cases: NCI-60 cell line screen, 48 h
786-0 = system: 786-0
A498 = system: A498
A549 = system: A549
ACHN = system: ACHN
BT-549 = system: BT-549
CAKI-1 = system: CAKI-1
CCRF-CEM = system: CCRF-CEM
COLO 205 = system: COLO 205
DU-145 = system: DU-145
EKVX = system: EKVX
HCC 2998 = system: HCC 2998
HCT-116 = system: HCT-116
HCT-15 = system: HCT-15
HL-60 = system: HL-60
HOP-62 = system: HOP-62
HOP-92 = system: HOP-92
HT-29 = system: HT-29
Hs-578T = system: Hs-578T
IGROV-1 = system: IGROV-1
K562 = system: K562
KM12 = system: KM12
LOX IMVI = system: LOX IMVI
M14 = system: M14
MCF7 = system: MCF7
MDA-MB-435 = system: MDA-MB-435
MDA-N = system: MDA-N
MOLT-4 = system: MOLT-4
Malme-3M = system: Malme-3M
NCI-H226 = system: NCI-H226
NCI-H23 = system: NCI-H23
NCI-H460 = system: NCI-H460
NCI-H522 = system: NCI-H522
NCI/ADR-RES = system: NCI/ADR-RES
OVCAR-3 = system: OVCAR-3
OVCAR-4 = system: OVCAR-4
OVCAR-5 = system: OVCAR-5
OVCAR-8 = system: OVCAR-8
PC-3 = system: PC-3
RPMI-8226 = system: RPMI-8226
RXF 393 = system: RXF 393
SF-268 = system: SF-268
SF-295 = system: SF-295
SF-539 = system: SF-539
SK-MEL-28 = system: SK-MEL-28
SK-MEL-2 = system: SK-MEL-2
SK-MEL-5 = system: SK-MEL-5
SK-OV-3 = system: SK-OV-3
SN12C = system: SN12C
SNB-19 = system: SNB-19
SNB-75 = system: SNB-75
SR = system: SR
SW-620 = system: SW-620
T47D = system: T47D
TK-10 = system: TK-10
U-251 = system: U-251
UACC-257 = system: UACC-257
UACC-62 = system: UACC-62
UO-31 = system: UO-31
MDA-MB-231 = system: MDA-MB-231

Measured: GI50

CC(C)(C)SC1=CCC[C@@H](P(=O)(c2ccccc2)c2ccccc2)[C@@H]2CCC[C@@H]12
inactive: 786-0 16.7 µM | A498 15.8 µM | A549 17.2 µM | ACHN 16.5 µM | BT-549 17.8 µM | CAKI-1 13.8 µM | CCRF-CEM 24.6 µM | COLO 205 18 µM | DU-145 17.2 µM | EKVX 18.6 µM | HCC 2998 16.2 µM | HCT-116 14.3 µM | HL-60 20 µM | HOP-62 17 µM | HOP-92 13.7 µM | HT-29 14.2 µM | Hs-578T 20.7 µM | IGROV-1 17.2 µM | K562 19.3 µM | KM12 16.3 µM | LOX IMVI 17.5 µM | M14 15.3 µM | MCF7 16.2 µM | MDA-MB-435 15 µM | MDA-N 16.1 µM | MOLT-4 16 µM | Malme-3M 19.6 µM | NCI-H226 17.7 µM | NCI-H23 17.2 µM | NCI-H460 15.7 µM | NCI-H522 15.7 µM | NCI/ADR-RES 17.2 µM | OVCAR-3 17 µM | OVCAR-4 14.3 µM | OVCAR-5 13.6 µM | OVCAR-8 18.3 µM | PC-3 14 µM | RPMI-8226 19.1 µM | RXF 393 13.8 µM | SF-268 17.8 µM | SF-295 15.1 µM | SF-539 18.8 µM | SK-MEL-28 24.3 µM | SK-MEL-2 16.5 µM | SK-MEL-5 17.7 µM | SK-OV-3 15.9 µM | SN12C 15.7 µM | SNB-19 16.1 µM | SNB-75 11.8 µM | SR 17 µM | SW-620 27 µM | T47D 14 µM | TK-10 17.5 µM | U-251 17.5 µM | UACC-257 17 µM | UACC-62 12.4 µM | UO-31 16.5 µM
16.6 µM: HCT-15

Cc1c(-c2ccccc2)nn2cc(-c3ccccc3)nnc12
inactive: 786-0 17.2 µM | A498 56.6 µM | A549 17.5 µM | ACHN 46.3 µM | BT-549 25.2 µM | CAKI-1 45.7 µM | CCRF-CEM 27.4 µM | COLO 205 22.2 µM | DU-145 30.4 µM | HCC 2998 15.5 µM | HCT-116 20.7 µM | HOP-62 28.7 µM | HOP-92 15.5 µM | HT-29 24.2 µM | Hs-578T 25.2 µM | IGROV-1 21.7 µM | K562 31 µM | KM12 29 µM | LOX IMVI 19 µM | M14 22.6 µM | MDA-MB-231 18.3 µM | MDA-MB-435 29.5 µM | MDA-N 19.7 µM | MOLT-4 35.5 µM | Malme-3M 13.3 µM | NCI-H226 21.2 µM | NCI-H23 31.9 µM | NCI-H460 16.9 µM | NCI-H522 15.5 µM | NCI/ADR-RES 39.1 µM | OVCAR-3 32.7 µM | OVCAR-4 44.5 µM | OVCAR-5 30.7 µM | OVCAR-8 67.3 µM | PC-3 19.6 µM | RPMI-8226 35.5 µM | RXF 393 18.2 µM | SF-268 28.6 µM | SF-295 34.8 µM | SK-MEL-28 27.6 µM | SK-MEL-2 15.1 µM | SK-MEL-5 16.3 µM | SK-OV-3 39.3 µM | SN12C 37.9 µM | SNB-19 40.8 µM | SNB-75 20.7 µM | SR 33.5 µM | SW-620 23 µM | T47D 61.2 µM | TK-10 42.4 µM | U-251 19.2 µM | UACC-257 23.4 µM | UACC-62 17.9 µM | UO-31 29.1 µM
14.7 µM: HCT-15

Cc1cc(C)c2nccc(NCCCN(C)C)c2c1[N+](=O)[O-]
15 µM: HCT-15
inactive: 786-0 36.2 µM | A498 59 µM | A549 30.8 µM | ACHN 34.9 µM | BT-549 35.5 µM | CAKI-1 32.2 µM | CCRF-CEM 37.2 µM | COLO 205 14.8 µM | DU-145 44.2 µM | EKVX 64 µM | HCC 2998 22.8 µM | HCT-116 30.9 µM | HL-60 25.9 µM | HOP-62 47.9 µM | HT-29 18.7 µM | Hs-578T 34 µM | IGROV-1 19.6 µM | K562 31 µM | KM12 31.4 µM | LOX IMVI 18.6 µM | M14 19.1 µM | MCF7 30.5 µM | MDA-MB-231 51.1 µM | MDA-MB-435 29.6 µM | MDA-N 38.8 µM | MOLT-4 39.6 µM | Malme-3M 19.3 µM | NCI-H23 19.2 µM | NCI-H460 26.8 µM | NCI-H522 14.4 µM | OVCAR-3 35.5 µM | OVCAR-4 13.8 µM | OVCAR-5 44 µM | OVCAR-8 37.6 µM | PC-3 20.6 µM | RPMI-8226 34.6 µM | RXF 393 19.5 µM | SF-268 33 µM | SF-295 26.1 µM | SF-539 34.9 µM | SK-MEL-28 19.6 µM | SK-MEL-2 23.8 µM | SK-MEL-5 13.5 µM | SK-OV-3 > 100 µM | SN12C 40.9 µM | SNB-19 > 100 µM | SNB-75 24.9 µM | SR 30.6 µM | SW-620 26.9 µM | T47D 33.3 µM | TK-10 30.8 µM | U-251 52.5 µM | UACC-257 17.1 µM | UACC-62 34.1 µM | UO-31 20.3 µM

COc1cc(C2S/C(=C/c3ccccc3)C(=O)N2c2cccc(Cl)c2)cc(OC)c1OC (centres undefined)
34.8 µM: HCT-15
inactive: 786-0 33.3 µM | A498 69.7 µM | A549 78.3 µM | ACHN 30.6 µM | BT-549 28.6 µM | CAKI-1 30.8 µM | CCRF-CEM 25.6 µM | COLO 205 > 100 µM | DU-145 23.1 µM | EKVX 37.2 µM | HCC 2998 46.1 µM | HCT-116 36.3 µM | HL-60 30.9 µM | HOP-92 96.4 µM | HT-29 44.9 µM | Hs-578T 86.7 µM | IGROV-1 56.9 µM | K562 21.1 µM | KM12 27.4 µM | LOX IMVI 21.1 µM | M14 62.8 µM | MCF7 34 µM | MDA-MB-231 > 100 µM | MDA-MB-435 22.2 µM | MDA-N 30.2 µM | MOLT-4 22 µM | NCI-H226 93.5 µM | NCI-H23 94.4 µM | NCI-H460 34.4 µM | NCI-H522 18.2 µM | NCI/ADR-RES 34.5 µM | OVCAR-3 30.1 µM | OVCAR-4 29.8 µM | OVCAR-5 > 100 µM | OVCAR-8 57.8 µM | PC-3 51.8 µM | RPMI-8226 24.8 µM | SF-268 77.1 µM | SF-295 33.7 µM | SF-539 31 µM | SK-MEL-28 78.3 µM | SK-MEL-2 62.7 µM | SK-MEL-5 35.7 µM | SK-OV-3 > 100 µM | SN12C 55.2 µM | SNB-19 42.9 µM | SR 19.4 µM | SW-620 46 µM | TK-10 > 100 µM | U-251 57.7 µM | UACC-257 23.6 µM | UACC-62 9.4 µM | UO-31 23.7 µM

COc1ccc(C)cc1Nc1nnc(-c2ccccc2N)s1
45.2 µM: HCT-15
inactive: 786-0 51.2 µM | A498 74.8 µM | A549 47.4 µM | ACHN 51.8 µM | BT-549 62.7 µM | CAKI-1 28.4 µM | CCRF-CEM 32.3 µM | COLO 205 36.8 µM | DU-145 > 100 µM | EKVX 24.7 µM | HCC 2998 30 µM | HCT-116 37.3 µM | HL-60 19.5 µM | HOP-62 44.7 µM | HOP-92 21.3 µM | HT-29 41.5 µM | Hs-578T 36.2 µM | IGROV-1 18 µM | K562 13.7 µM | KM12 28.4 µM | LOX IMVI 47.1 µM | M14 40.2 µM | MCF7 37.8 µM | MDA-MB-435 28.6 µM | MDA-N 28.9 µM | MOLT-4 2.41 µM | Malme-3M 40.6 µM | NCI-H226 43 µM | NCI-H23 34.3 µM | NCI-H460 31 µM | NCI-H522 20.2 µM | NCI/ADR-RES 34.8 µM | OVCAR-3 37.5 µM | OVCAR-4 26.1 µM | OVCAR-5 89.9 µM | OVCAR-8 35.7 µM | PC-3 35 µM | RPMI-8226 18.1 µM | RXF 393 55.1 µM | SF-268 > 100 µM | SF-295 34 µM | SF-539 82.8 µM | SK-MEL-28 53.3 µM | SK-MEL-2 19.5 µM | SK-MEL-5 13.7 µM | SK-OV-3 > 100 µM | SN12C 32 µM | SNB-19 > 100 µM | SNB-75 55 µM | SR 13.4 µM | SW-620 36.1 µM | T47D 49.2 µM | UACC-257 37.3 µM | UACC-62 37.3 µM | UO-31 36.8 µM
